Tests used:
[1] = tested on: DOHH2; test: Combination of EPZ-6438 and other therapeutic agents (4+3 model), DOHH2; type: cell-based; details: for combination effect with EPZ-6438, DOHH2: WT EZH2 GCB; for combination effect with EPZ-6438, DOHH2 (WT EZH2 GC): Table 3
[2] = tested on: Toledo; details: Table 3; 4+3 model
[3] = tested on: TMD8; test: Combination of EPZ-6438 and other therapeutic agents (4+3 model), TMD8; details: WT EXH2 ABC
[4] = tested on: RC-K8; test: Combination of EPZ-6438 and other therapeutic agents (4+3 model), RC-K8; details: WT EXH2 ABC
[5] = tested on: SUDHL5; test: Combination of EPZ-6438 and other therapeutic agents (4+3 model), SUDHL5; details: for combination effect with EPZ-6438, SUDHL5: WT EZH2 GCB
[6] = tested on: Farage; test: Combination of EPZ-6438 and other therapeutic agents (4+3 model), Farage; details: WT EZH2 GCB
[7] = tested on: SUDHL2; test: Combination of EPZ-6438 and other therapeutic agents (4+3 model), SUDHL2; details: WT EXH2 ABC
[8] = tested on: OCI-LY7; test: Combination of EPZ-6438 and other therapeutic agents (4+3 model), OCI-LY7; details: WT EZH2 GCB
[9] = tested on: OCI-LY3; test: Combination of EPZ-6438 and other therapeutic agents (4+3 model), OCI-LY3; details: WT EXH2 ABC
[10] = tested on: SU-DHL-6; test: Combination of EPZ-6438 and other therapeutic agents (4+3 model), SU-DHL-6; details: for combination effect with EPZ-6438, SU-DHL-6: Mutant EZH2 GCB; for combination effect with EPZ-6438, SU-DHL-6 (mutant EZH2 GC): Table 3
[11] = tested on: OCI-LY19; test: Combination of EPZ-6438 and other therapeutic agents (4+3 model), OCI-LY19; details: for combination effect with EPZ-6438, OCI-LY19: WT EZH2 GCB
[12] = tested on: WSU-DLCL2; test: Combination of EPZ-6438 and other therapeutic agents (4+3 model), WSU-DLCL2; details: for combination effect with EPZ-6438, WSU-DLCL2: Mutant EZH2 GCB, EPZ-6438 4 days then co-treatment 3 days (4+3 model); for combination effect with EPZ-6438, WSU-DLCL2 (mutant EZH2 GC): Table 3, 4+3 model
[13] = tested on: SU-DHL-10; test: Combination of EPZ-6438 and other therapeutic agents (4+3 model), SU-DHL-10; details: for combination effect with EPZ-6438, SU-DHL-10: Mutant EZH2 GCB; for combination effect with EPZ-6438, SU-DHL-10 (mutant EZH2 GC): Table 3
[14] = tested on: KARPAS-422; test: Combination of EPZ-6438 and other therapeutic agents (4+3 model), KARPAS-422; details: Mutant EZH2 GCB
[15] = tested on: Non-Hodgkin's lymphoma; test: Phase 1 clinical study of EPZ-6438: tumor response; type: in vivo, human
Description: (§1) The phase 1 trial enrolled patients with relapsed/refractory solid tumors and B cell lymphoma. The study employed a standard 3+3 dose escalation design with two planned dose expansion cohorts and clinical pharmacology sub-studies. The primary endpoint was determination of a recommended phase 2 dose or MTD with standard secondary endpoints. The results of the study are also presented in WO 2015195848 and figures therein, the content of which is hereby incorporated by reference in its entirety.
The patients enrolled included 19 patients with Non-Hodgkin's lymphoma (NHL) of which 13 patients have DLBCL. Cell-of origin testing was intended for all NHL patients; however, 3 DLBCL patients had insufficient tissue to permit determination of germinal center vs. non-germinal center status. EZH2 mutation testing was centrally performed for 14 NHL patients by the Cobas® test (Roche). One lymphoma patient whose tumor has been treated to date carries an EZH2 mutation. For the solid tumor patients, attention has been given to recruiting patients with INI1-deficient tumors due to the oncogenic role of EZH2 in these tumors.
NHL patients on study were heavily pre-treated with 85% having received three or more prior systemic therapies and nearly half receiving four or more prior regimens.

[16] = clinical; details: human, in vivo
Description: as §1
[…]. […] While a decrease in AUC between the first dose and day 15 was observed, there was no further reduction in systemic exposure beyond that time, as evidenced by pre-dose Ctrough levels in the right panel.

[17] = tested on: H3K27 trimethylation; test: Phase 1 clinical study: tri-methyl H3K27 levels in skin biopsy by immunohistochemistry; type: in vivo, human; details: for reduction from baseline in PD H3K27 trimethylation in skin biopsy: wild type EZH2
Description: Pre- and post-dose skin biopsies were collected to assess pharmacodynamics in a surrogate tissue through the measurement of tri-methyl H3K27 levels by immunohistochemistry.

[18] = human, in vivo
Description: as §1
[…]. One patient discontinued drug for grade 4 neutropenia. Both of these patients were treated in the 800 mg expansion cohort. • Seven patients had dose interruptions. Of these, 6 were from a reversible toxicity and resumed study agent at prior dose without further issue.

[19] = tested on: KARPAS 422 tumor; test: Single agent activity of EPZ-6438 in KARPAS 422 tumor (FIG. 2A); type: in vivo; details: mutant EZH2 (Y646N)
[20] = tested on: WSU-DLCL2 tumor; test: EPZ-6438 with CHOP chemotherapy in vivo, WSU-DLCL2 tumor (FIG. 3A)
[21] = tested on: SUDHL6 tumor; test: EPZ-6438 with CHOP chemotherapy in vivo, SUDHL6 tumor (FIG. 3B, 3C)
[22] = tested on: HT; test: Combination of EPZ-6438 and other therapeutic agents (4+3 model), HT; details: WT EZH2 GCB
[23] = patient with primary mediastinal B-cell lymphoma, wild type EZH2, 200 mg orally twice a day

C[C@@H]1C[C@H]2[C@@H]3CCC4=CC(=O)C=C[C@]4(C)[C@@]3(F)[C@@H](O)C[C@]2(C)[C@@]1(O)C(=O)CO [Dexamethasone]
combination effect with EPZ-6438, DOHH2 [1]: S
combination effect with EPZ-6438, Toledo (WT EZH2 ABC) [2]: No effect
combination effect with EPZ-6438, TMD8 [3]: S
combination effect with EPZ-6438, RC-K8 [4]: S
combination effect with EPZ-6438, SUDHL5 [5]: S
combination effect with EPZ-6438, Farage [6]: S
combination effect with EPZ-6438, SUDHL2 [7]: S
combination effect with EPZ-6438, OCI-LY7 [8]: S
combination effect with EPZ-6438, OCI-LY3 [9]: S
combination effect with EPZ-6438, SU-DHL-6 [10]: S
combination effect with EPZ-6438, OCI-LY19 ([11]; 4+3 model): S
combination effect with EPZ-6438, WSU-DLCL2 [12]: S
combination effect with EPZ-6438, SU-DHL-10 [13]: S
combination effect with EPZ-6438, KARPAS-422 [14]: S

COc1cccc2c1C(=O)c1c(O)c3c(c(O)c1C2=O)C[C@@](O)(C(=O)CO)C[C@@H]3O[C@H]1C[C@H](N)[C@H](O)[C@H](C)O1 [Doxorubicin]
combination effect with EPZ-6438, DOHH2 (WT EZH2 GC) [1]: No effect
combination effect with EPZ-6438, Toledo (WT EZH2 ABC) [2]: No effect
combination effect with EPZ-6438, SU-DHL-6 (mutant EZH2 GC) [10]: Additive
combination effect with EPZ-6438, WSU-DLCL2 (mutant EZH2 GC) [12]: Synergy
combination effect with EPZ-6438, SU-DHL-10 (mutant EZH2 GC) [13]: Additive

CCN(c1cc(-c2ccc(CN3CCOCC3)cc2)cc(C(=O)NCc2c(C)cc(C)[nH]c2=O)c1C)C1CCOCC1 [EPZ-6438, tazemetostat]
objective response ([15]; DLBCL): 5 of 9
reduction of abdominal mass ([15]; DLBCL patient with EZH2 mutation, by week 16): 52%
objective response ([15]; evaluable NHL patients): Nine of 15
objective response ([15]; follicular lymphoma): 3 of 5
response ([15]; one patient with marginal zone nodular lymphoma, approaching one year on therapy): partial response
FDG uptake [15, 23]: reduction
reduction in lesion size via computed tomography (CT) [15, 23]: 73%
reduction in lesion size via computed tomography (CT) ([15]; patient with transformed DLBCL, wild type EZH2, 100 mg orally twice a day): 66%
PK at steady state throughout the entire dosing range [16]: dose-proportional linear PK
absorption [16]: rapid absorption
half-life [16]: 3 to 5 h
reduction from baseline in PD H3K27 trimethylation in skin biopsy ([17]; patient with primary mediastinal B-cell lymphoma, 200 mg orally twice a day): 27%
reduction from baseline in PD H3K27 trimethylation in skin biopsy ([17]; patient with transformed DLBCL, 100 mg orally twice a day): 21%
tri-methyl H3K27 levels across the full thickness of skin ([17]; pre- and post-dose skin biopsies): dose-dependent reduction
Grade 3 or greater adverse events, fraction of patients [18]: a third
Grade 3 or greater treatment-related adverse events [18]: 5 patients
tolerability [18]: well-tolerated
tumor growth, single agent [19]: growth inhibition
effect of combination with CHOP chemotherapy on mean tumor volume [20]: synergy
effect of combination with CHOP chemotherapy on mean tumor volume and survival [21]: synergy
activity of EPZ-6438 in combination with prednisolone ([11]; OCI-LY19, FIG. 1B): possesses activity

CO[C@H]1C[C@@H]2CC[C@@H](C)[C@@](O)(O2)C(=O)C(=O)N2CCCC[C@H]2C(=O)O[C@H]([C@H](C)C[C@@H]2CC[C@@H](OCCO)[C@H](OC)C2)CC(=O)[C@H](C)/C=C(\C)[C@@H](O)[C@@H](OC)C(=O)[C@H](C)C[C@H](C)/C=C/C=C/C=C/1C [Everolimus]
combination effect with EPZ-6438, HT [22]: S
combination effect with EPZ-6438, TMD8 [3]: S
combination effect with EPZ-6438, RC-K8 [4]: S
combination effect with EPZ-6438, SUDHL5 [5]: S
combination effect with EPZ-6438, Farage [6]: S
combination effect with EPZ-6438, SUDHL2 [7]: S
combination effect with EPZ-6438, OCI-LY7 [8]: S
combination effect with EPZ-6438, OCI-LY3 [9]: S
combination effect with EPZ-6438, SU-DHL-6 [10]: S
combination effect with EPZ-6438, WSU-DLCL2 [12]: S
combination effect with EPZ-6438, SU-DHL-10 [13]: S
combination effect with EPZ-6438, KARPAS-422 [14]: ADD.

C=CC(=O)N1CCC[C@@H](n2nc(-c3ccc(Oc4ccccc4)cc3)c3c(N)ncnc32)C1 [Ibrutinib]
combination effect with EPZ-6438, HT [22]: S
combination effect with EPZ-6438, TMD8 [3]: S
combination effect with EPZ-6438, RC-K8 [4]: ADD.
combination effect with EPZ-6438, SUDHL5 [5]: S
combination effect with EPZ-6438, Farage [6]: S
combination effect with EPZ-6438, SUDHL2 [7]: ADD.
combination effect with EPZ-6438, OCI-LY7 [8]: S
combination effect with EPZ-6438, OCI-LY3 [9]: ADD.
combination effect with EPZ-6438, SU-DHL-6 [10]: S
combination effect with EPZ-6438, WSU-DLCL2 [12]: S
combination effect with EPZ-6438, SU-DHL-10 [13]: S
combination effect with EPZ-6438, KARPAS-422 [14]: S

C[C@]12C=CC(=O)C=C1CC[C@@H]1[C@@H]2[C@@H](O)C[C@@]2(C)[C@H]1CC[C@]2(O)C(=O)CO [Prednisolone]
combination effect with EPZ-6438, DOHH2 (WT EZH2 GC) [1]: Synergy
combination effect with EPZ-6438, DOHH2 [1]: S
combination effect with EPZ-6438, Toledo (WT EZH2 ABC) [2]: No effect
combination effect with EPZ-6438, TMD8 [3]: S
combination effect with EPZ-6438, RC-K8 [4]: S
combination effect with EPZ-6438, SU-DHL-5 (WT EZH2 GC) ([5]; Table 3): Synergy
combination effect with EPZ-6438, SUDHL5 [5]: S
combination effect with EPZ-6438, Farage [6]: S
combination effect with EPZ-6438, SUDHL2 [7]: S
combination effect with EPZ-6438, OCI-LY7 [8]: S
combination effect with EPZ-6438, OCI-LY3 [9]: S
combination effect with EPZ-6438, SU-DHL-6 [10]: S
combination effect with EPZ-6438, SU-DHL-6 (mutant EZH2 GC) [10]: Synergy
combination effect with EPZ-6438, OCI-LY-19 (WT EZH2 GC) ([11]; Table 3, 4+3 model): Synergy
combination effect with EPZ-6438, OCI-LY19 ([11]; 4+3 model): S
combination effect with EPZ-6438, WSU-DLCL2 [12]: S
combination effect with EPZ-6438, WSU-DLCL2 (mutant EZH2 GC) [12]: Synergy
combination effect with EPZ-6438, SU-DHL-10 [13]: S
combination effect with EPZ-6438, SU-DHL-10 (mutant EZH2 GC) [13]: Synergy
combination effect with EPZ-6438, KARPAS-422 [14]: S

CC[C@]1(O)C[C@H]2CN(CCc3c([nH]c4ccccc34)[C@@](C(=O)OC)(c3cc4c(cc3OC)N(C=O)[C@H]3[C@@](O)(C(=O)OC)[C@H](OC(C)=O)[C@]5(CC)C=CCN6CC[C@]43[C@@H]65)C2)C1 [Vincristine]
combination effect with EPZ-6438, DOHH2 (WT EZH2 GC) [1]: No effect
combination effect with EPZ-6438, Toledo (WT EZH2 ABC) [2]: No effect
combination effect with EPZ-6438, SU-DHL-6 (mutant EZH2 GC) [10]: Additive
combination effect with EPZ-6438, WSU-DLCL2 (mutant EZH2 GC) [12]: Additive
combination effect with EPZ-6438, SU-DHL-10 (mutant EZH2 GC) [13]: Additive

Source: patent US11951109B2, “EZH2 inhibitors for treating lymphoma” (Epizyme, Inc., priority 2015, dated 2024)
